The values below come from PMC6522524 (Nature Communications, 2019).

In assay [1] the target is T1, Cp149 (truncated HBV core protein) (Hepatitis B virus genotype D subtype ayw, UniProt P03146).
T1 construct: Cp149 (amino acids 1–149) is a truncated form of the HBV core protein; made in house; host or cells: Escherichia coli
Nature of the assay: biochemical. The note with it: for Relative intensity, anti core-native gel, individual samples: Sample1-2; for HBV capsid assembly inhibitory activity in vitro (Supplementary Fig. 8): Cp149.

The target of assay [2] is HBV core protein (pCDNA3-Core, Y118 wild-type) in Huh-7 cells (Hepatitis B virus genotype C, UniProt P0C6H6). Nature of the assay: cell-based. The note with it: for activity at 0.1 µM: Huh-7, Y118, 0.1 μM; for activity at 0.5 µM: Huh-7, Y118, 0.5 μM; for activity at 1 µM: Huh-7, Y118, 1 μM; for activity at 5 µM: Huh-7, Y118, 5 μM; for activity at 10 µM: Huh-7, Y118, 10 μM; for HBV capsid assembly inhibitory activity in vivo (Fig. 3d): Huh-7, pCDNA3-Core. In kind it is cell-based.

Assay [3] concerns total HBV core protein in Huh-7 cells. The format is cell-based, Hepatitis B virus. The note with it: treatment time increased. The procedure:
the indicated times. The cells were lysed and assembled HBV core particles were isolated by sucrose step-gradient ultracentrifugation, resolved on 1 % agarose gels, and subjected to immunoblot analysis with anti-HBV core antibody. Total intracellular HBV core protein was also determined by immunoblot analysis in the cell lysates. Core mRNA levels were measured by quantitative RT-PCR. The data

[4] abbreviates: Sample1-3, read-out: Relative intensity (Folds), intracellular capsid, individual samples.
[5] abbreviates: read-out: Relative intensity (Folds), intracellular capsid, AVERAGE.
Setting [6] is: Y118, 0.1 μM, Sample1-3, 0.1 µM.
[7] abbreviates: Y118, 0.5 μM, Sample1-3, 0.5 µM.

Several values for one entry are separate records, joined by “and”; a condition that tells them apart may be missing. Equal values may be shown once. Read-outs that look alike come from different tables or passages of the source.

Chain of HBV core protein (pCDNA3-Core, Y118 wild-type) in Huh-7 cells (P0C6H6 whole entry): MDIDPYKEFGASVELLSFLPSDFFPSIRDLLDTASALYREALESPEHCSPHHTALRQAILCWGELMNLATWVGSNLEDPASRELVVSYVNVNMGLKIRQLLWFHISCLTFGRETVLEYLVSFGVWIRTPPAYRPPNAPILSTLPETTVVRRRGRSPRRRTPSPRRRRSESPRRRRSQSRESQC
T1 sequence (P03146 1-149): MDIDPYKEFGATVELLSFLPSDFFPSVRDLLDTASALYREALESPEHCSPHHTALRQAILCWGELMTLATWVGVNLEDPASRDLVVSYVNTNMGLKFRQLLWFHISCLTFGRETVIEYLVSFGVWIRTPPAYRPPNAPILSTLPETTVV

With `CC1(CC(=O)O)CC(C2CCCCC2)=NO1` (racemic) [(RS)-2-(3-cyclohexyl-5-methyl-4,5-dihydroisoxazol-5-yl)acetic Acid], the “Relative intensity, anti core-native gel, AVERAGE” value (from here on “Relative intensity … AVERAGE”) in assay [1] (Drug Concentration 0.1 μM) turned out to be 0.9301; in assay [1] (Drug Concentration 0.2 μM) it was 1.003; in assay [1] (Drug Concentration 0.5 μM), 0.9877; in assay [1] (Drug Concentration 1 μM) it was 0.9712; in assay [1] (Drug Concentration 2 μM), 0.9867; in assay [1] (Drug Concentration 5 μM), 0.9809. In assay [1] (Drug Concentration 10 μM), the “Relative intensity … AVERAGE” value came out at 1.051. Further, the “Relative intensity, anti core-native gel, individual samples” value was 1.019 and 0.8411 in assay [1] (Drug Concentration 0.1 μM); 1.033 and 0.9731 in assay [1] (Drug Concentration 0.2 μM); 0.9703 and 1.005 in assay [1] (Drug Concentration 0.5 μM); 1.074 and 0.8679 in assay [1] (Drug Concentration 1 μM); 1.072 and 0.9014 in assay [1] (Drug Concentration 2 μM); 1.098 and 0.8634 in assay [1] (Drug Concentration 5 μM). In addition, in assay [1] (Drug Concentration 10 μM), the “Relative intensity, anti core-native gel, individual samples” value is 1.175 and 0.9277.

Consider `Cc1cc(C2CCCCC2)[nH]c(=O)c1` [Compound 2, 6-Cyclohexyl-4-methyl pyridin-2(1H)-one], for which the “HBV capsid assembly inhibitory activity in vitro (Supplementary Fig. 8)” value in assay [1] was “blocked its HBV capsid assembly inhibitory activity”. In addition, the “Relative intensity … AVERAGE” value is 0.9832 in assay [1] (Drug Concentration 0.1 μM); 1.01 in assay [1] (Drug Concentration 0.2 μM); 0.9545 in assay [1] (Drug Concentration 0.5 μM); 0.9058 in assay [1] (Drug Concentration 1 μM); 0.9815 in assay [1] (Drug Concentration 2 μM); 0.9702 in assay [1] (Drug Concentration 5 μM). Also, the “Relative intensity … AVERAGE” value in assay [1] (Drug Concentration 10 μM) was found to be 0.8707. Also, the “Relative intensity, anti core-native gel, individual samples” value in assay [1] (Drug Concentration 0.1 μM) is 0.9055 and 1.061; in assay [1] (Drug Concentration 0.2 μM), 0.8978 and 1.1231; in assay [1] (Drug Concentration 0.5 μM), 0.9595 and 0.9494; in assay [1] (Drug Concentration 1 μM) it was 0.865 and 0.9466; in assay [1] (Drug Concentration 2 μM) it was 0.9391 and 1.024; in assay [1] (Drug Concentration 5 μM), 0.8581 and 1.082. The “Relative intensity, anti core-native gel, individual samples” value in assay [1] (Drug Concentration 10 μM) is 0.8904 and 0.851. Further, the activity at 0.1 µM in assay [2] (setting [4]) worked out at 94%; in assay [2] (setting [5]) it was 96.2%. In addition, the values for the activity at 0.5 µM in assay [2] (setting [4]) and in assay [2] (setting [5]) were 96.4% and 98.6%, respectively. The activity at 1 µM is 90.2% in assay [2] (setting [4]) and 101% in assay [2] (setting [5]). Moreover, the activity at 5 µM in assay [2] (setting [4]) worked out at 85.6%; in assay [2] (setting [5]), 95.8%. The activity at 10 µM amounted to 87.2% in assay [2] (setting [4]) and 99.5% in assay [2] (setting [5]). Moreover, the “HBV capsid assembly inhibitory activity in vivo (Fig. 3d)” value in assay [2] was “blocked its HBV capsid assembly inhibitory activity”. In addition, the “Relative intensity (Folds), intracellular capsid, individual samples” value was 1.008 Folds and 0.9391 Folds in assay [2] (setting [6]); 1.032 Folds and 0.9631 Folds in assay [2] (setting [7]); 1.06 Folds and 1.081 Folds in assay [2] (Y118, 1 μM, Sample1-3, 1 µM); 1.004 Folds and 1.015 Folds in assay [2] (Y118, 5 μM, Sample1-3, 5 µM); 1.04 Folds and 1.071 Folds in assay [2] (Y118, 10 μM, Sample1-3, 10 µM).

On to `Cc1cc(C2CCCCC2)oc(=O)c1` [Compound 3, 6-Cyclohexyl-4-methyl-2–pyrone], for which, in assay [1], the “HBV capsid assembly inhibitory activity in vitro (Supplementary Fig. 8)” value is “blocked its HBV capsid assembly inhibitory activity”. In addition, the “Relative intensity … AVERAGE” value in assay [1] (Drug Concentration 0.1 μM) is reported as 0.9537; in assay [1] (Drug Concentration 0.2 μM), 0.9345; in assay [1] (Drug Concentration 0.5 μM) it was 0.8949; in assay [1] (Drug Concentration 1 μM), 0.9182; in assay [1] (Drug Concentration 2 μM), 0.8055; in assay [1] (Drug Concentration 5 μM), 0.9044. The “Relative intensity … AVERAGE” value in assay [1] (Drug Concentration 10 μM) is listed as 1.014. Further, the “Relative intensity, anti core-native gel, individual samples” value was 0.8748 and 1.033 in assay [1] (Drug Concentration 0.1 μM, listed as 6-Cycloxexyl-4-methyl-2-pyrone); 0.9048 and 0.9643 in assay [1] (Drug Concentration 0.2 μM, listed as 6-Cycloxexyl-4-methyl-2-pyrone); 0.8127 and 0.9771 in assay [1] (Drug Concentration 0.5 μM, listed as 6-Cycloxexyl-4-methyl-2-pyrone); 0.8468 and 0.9896 in assay [1] (Drug Concentration 1 μM, listed as 6-Cycloxexyl-4-methyl-2-pyrone); 0.798 and 0.8131 in assay [1] (Drug Concentration 2 μM, listed as 6-Cycloxexyl-4-methyl-2-pyrone); 0.8531 and 0.9558 in assay [1] (Drug Concentration 5 μM, listed as 6-Cycloxexyl-4-methyl-2-pyrone). In addition, the “Relative intensity, anti core-native gel, individual samples” value in assay [1] (Drug Concentration 10 μM, listed as 6-Cycloxexyl-4-methyl-2-pyrone) is 0.9919 and 1.036. Also, the results for the activity at 0.1 µM in assay [2] (setting [4]) and in assay [2] (setting [5]) were 109% and 119%, respectively. In assay [2] (setting [5]), the activity at 0.5 µM is 113%. Moreover, the results for the activity at 1 µM in assay [2] (setting [4]) and in assay [2] (setting [5]) were 103% and 106%, respectively. For the same compound, the figures for the activity at 5 µM in assay [2] (setting [4]) and in assay [2] (setting [5]) were 110% and 115%, respectively. For the same compound, in assay [2] (setting [5]), the activity at 10 µM amounted to 115%. Further, in assay [2], the “HBV capsid assembly inhibitory activity in vivo (Fig. 3d)” value was “blocked its HBV capsid assembly inhibitory activity”. The “Relative intensity (Folds), intracellular capsid, individual samples” value is 1.2405 Folds and 1.2516 Folds in assay [2] (setting [6]); 0.9808 Folds and 1.196 Folds and 1.214 Folds in assay [2] (setting [7]); 1.107 Folds and 1.042 Folds in assay [2] (Y118, 1 μM, Sample1-3, 1 µM); 1.192 Folds and 1.143 Folds in assay [2] (Y118, 5 μM, Sample1-3, 5 µM); 0.9807 Folds and 1.199 Folds and 1.28 Folds in assay [2] (Y118, 10 μM, Sample1-3, 10 µM).

Bay41–4109: the total core protein entry in assay [3] is reported as “decreased”.
